From patent US20260166162A1, “CARBON CHAIN SUBSTANCE FOR REGULATING TRANSMEMBRANE TRANSPORT AND FLUIDITY OF CELL MEMBRANES, AND PREPARATION AND USE THEREOF” (priority 2022, published 2026) come the findings set out here.

Common to all, as to type: cell-based
One test deals with rabies pseudovirus. The following applies: n=3.
The next test relates to 293T cells. Put plainly: Cellular phagocytosis of DiD-loaded lipid vesicles (nano-drugs) by 293T cells (Example II-51, Table II-29). The following applies: 293T cells pretreated 4 h, DiD lipid vesicles 2 h, n=3, untreated control 226.46 ± 1.26.
The subject of test [1] is influenza pseudovirus H7N9-Fluc. In words: microbe, parasite or virus in culture. Conditions: n=3; for inhibition at 0.002 µM / inhibition at 0.005 µM / inhibition at 0.01 µM / inhibition at 0.05 µM / inhibition at 0.1 µM / inhibition at 1 µM / inhibition at 10 µM / inhibition at 50 µM / inhibition at 100 µM: Pseudovirus, H7N9, read-out: Inhibition rate (%).
The subject of another test is HIV pseudovirus (18A-41). Conditions: 293T cells pretreated 4 h, n=3.
Where [2] appears, read: 100 μM, negative value = promotes infection.

Read-outs that look alike come from different tables or passages of the source.

Turning to `CC/C=C\C/C=C\C/C=C\C/C=C\C/C=C\C/C=C\CCC(=O)OCC(O)C1OC(=O)C(O)=C1O` (stereo not drawn) [Ascorbic Acid-DHA], the “Inhibition rate (%)” value with rabies pseudovirus (2 nM) is given as 51.40 ± 1.54%; in the test with rabies pseudovirus (5 nM), 51.99 ± 3.99%; with rabies pseudovirus (10 nM), 64.84 ± 6.57%; in the test on rabies pseudovirus (50 nM) it was 70.88 ± 4.22%; in the test with rabies pseudovirus (100 nM), 79.06 ± 2.39%; in the test on rabies pseudovirus (1 μM), 14.83 ± 4.26%. Moreover, the “Inhibition rate (%)” value with rabies pseudovirus (10 μM) came to 34.88 ± 5.99%; in the test with rabies pseudovirus (50 μM), 95.55 ± 6.98%; in the test on rabies pseudovirus (100 μM) it was 99.08 ± 6.36%. Further, the Fluorescence intensity with 293T cells (2 nM) turned out to be 98.37 ± 7.89; in the test on 293T cells (5 nM), 92.26 ± 8.23; in the test with 293T cells (10 nM), 69.70 ± 4.55; in the test with 293T cells (50 nM), 73.98 ± 5.36; in the test on 293T cells (100 nM), 243.38 ± 11.00; with 293T cells (1 uM), 253.70 ± 10.23. In addition, the Fluorescence intensity with 293T cells (10 uM) worked out at 58.97 ± 1.55; in the test on 293T cells (50 uM) it was 39.02 ± 1.03; in the test on 293T cells (100 uM), 19.86 ± 0.23.

`CCCCCCCCCC(=O)O` [N-decanoic acid]: the “Inhibition rate (%)” value is 35.04 ± 2.04% in test [1] (2 nM); 31.86 ± 2.23% in test [1] (5 nM); 66.11 ± 2.33% in test [1] (10 nM); 75.38 ± 2.03% in test [1] (50 nM); 75.54 ± 4.00% in test [1] (100 nM); -32.33 ± 1.56% in test [1] (1 μM). Besides, the “Inhibition rate (%)” value in test [1] (10 μM) is recorded as -54.38 ± 4.38%; in test [1] (50 μM), 41.08 ± 4.08%; in test [1] (100 μM) it was 47.98 ± 3.09%. In addition, the Fluorescence intensity came out at 131.26 ± 8.63 with 293T cells (2 nM); 114.00 ± 11.2 with 293T cells (5 nM); 94.34 ± 7.54 in the test on 293T cells (10 nM); 96.63 ± 6.99 in the test with 293T cells (50 nM); 143.94 ± 13.26 in the test with 293T cells (100 nM); 237.62 ± 17.5 with 293T cells (1 uM). Moreover, the Fluorescence intensity in the test on 293T cells (10 uM) amounted to 147.74 ± 14.23; with 293T cells (50 uM) it was 135.74 ± 15.2; in the test on 293T cells (100 uM), 127.34 ± 12.22.

`CCCCCCCCC(=O)O` [Nonanoic acid]: in test [1] (2 nM), the inhibition (as a rule, the change of the read-out against control, counted positive when it falls) at 0.002 µM was found to be 42 ± 3.06%. In addition, the inhibition at 0.005 µM in test [1] (5 nM) turned out to be 49.7 ± 1.56%. Moreover, the inhibition at 0.01 µM in test [1] (10 nM) was found to be 58.3 ± 4.02%. Besides, the inhibition at 0.05 µM in test [1] (50 nM) is 57.3 ± 1.66%. In test [1] (100 nM), the inhibition at 0.1 µM came to 36.4 ± 2.33%. Also, in test [1] (1 μM), the inhibition at 1 µM was -4.93 ± 0.23%. The inhibition at 10 µM in test [1] (10 μM) turned out to be 34.8 ± 3.06%. The inhibition at 50 µM in test [1] (50 μM) worked out at 40.1 ± 1.23%. Also, the inhibition at 100 µM in test [1] (100 μM) is 43.8 ± 4.38%. Besides, the Fluorescence intensity with 293T cells (2 nM) amounted to 157.30 ± 7.06; in the test with 293T cells (5 nM), 176.50 ± 7.06; in the test on 293T cells (10 nM), 106.35 ± 4.65; in the test on 293T cells (50 nM), 98.90 ± 8.26; in the test with 293T cells (100 nM), 106.35 ± 5.06; in the test with 293T cells (1 uM) it was 243.20 ± 13.65. Besides, the Fluorescence intensity in the test on 293T cells (10 uM) came to 135.36 ± 11.03; in the test on 293T cells (50 uM), 64.86 ± 5.54; in the test with 293T cells (100 uM) it was 104.28 ± 10.25.

In the case of `C=CCCCCCCCCC(=O)[O-].[Na+]` [Sodium undecylenate], the inhibition at 0.002 µM in test [1] (2 nM) came to 30.5 ± 2.36%. In test [1] (5 nM), the inhibition at 0.005 µM was 22.1 ± 2.14%. Also, the inhibition at 0.01 µM in test [1] (10 nM) turned out to be 53 ± 5.03%. For the same molecule, the inhibition at 0.05 µM in test [1] (50 nM) turned out to be 56.3 ± 5.03%. For the same molecule, in test [1] (100 nM), the inhibition at 0.1 µM was found to be 53 ± 4.06%. Besides, the inhibition at 1 µM in test [1] (1 μM) is -7.39 ± 0.22%. For the same molecule, the inhibition at 10 µM in test [1] (10 μM) was determined as 40.2 ± 3.23%. Moreover, in test [1] (50 μM), the inhibition at 50 µM is 71.4 ± 3.26%. For the same molecule, the inhibition at 100 µM in test [1] (100 μM) came out at 54 ± 4.39%. Further, the Fluorescence intensity in the test on 293T cells (2 nM) turned out to be 135.63 ± 7.06; with 293T cells (5 nM) it was 100.34 ± 8.06; in the test on 293T cells (10 nM), 89.79 ± 4.98; in the test with 293T cells (50 nM), 62.57 ± 3.60; in the test with 293T cells (100 nM), 57.18 ± 5.23; in the test on 293T cells (1 uM), 232.89 ± 12.26. Moreover, the Fluorescence intensity was found to be 325.29 ± 15.22 with 293T cells (10 uM), 63.77 ± 3.37 with 293T cells (50 uM) and 58.70 ± 2.66 in the test with 293T cells (100 uM).

With `CCCCCC/C=C\CCCCCCCC(=O)OC(C)C(N)C(=O)O` (stereo not drawn) [Threonine-c-9-hexadecanoic acid], the “Inhibition rate (%)” value in test [1] (2 nM) is on record as 56.47 ± 5.47%; in test [1] (5 nM), 79.21 ± 5.22%; in test [1] (10 nM), 60.86 ± 4.03%; in test [1] (50 nM), 59.03 ± 1.64%; in test [1] (100 nM) it was 68.64 ± 2.03%; in test [1] (1 μM), 12.84 ± 1.03%. Moreover, the “Inhibition rate (%)” value in test [1] (10 μM) was determined as 34.49 ± 4.49%; in test [1] (50 μM), 71.06 ± 4.08%; in test [1] (100 μM), 78.34 ± 4.39%.

For the molecule `Cc1c(C)c2c(c(C)c1O)CCC(C)(CCCC(C)CCCC(C)CCCC(C)C)O2` (stereo not drawn) [Vitamin-E, Vitamin E], the “Inhibition rate (%)” value in the test with HIV pseudovirus (18A-41) (2 nM) was 55.66 ± 6.03%; with HIV pseudovirus (18A-41) (5 nM), 61.87 ± 5.06%; in the test with HIV pseudovirus (18A-41) (10 nM), 70.04 ± 4.65%; in the test with HIV pseudovirus (18A-41) (50 nM), 79.33 ± 5.89%; with HIV pseudovirus (18A-41) (100 nM), 89.99 ± 8.97%; in the test with HIV pseudovirus (18A-41) (1 μM), -84.33 ± 6.36%. Further, the “Inhibition rate (%)” value in the test on HIV pseudovirus (18A-41) (10 μM) was determined as 4.16 ± 0.11%; in the test with HIV pseudovirus (18A-41) (50 μM), 61.36 ± 8.64%; in the test on HIV pseudovirus (18A-41) (setting [2]), 58.98 ± 6.37%. The Fluorescence intensity in the test with 293T cells (2 nM) came to 100.41 ± 4.43; in the test with 293T cells (5 nM) it was 86.35 ± 2.47; with 293T cells (10 nM) it was 67.85 ± 1.43; in the test on 293T cells (50 nM), 46.81 ± 1.48; with 293T cells (100 nM), 22.67 ± 0.03; with 293T cells (1 uM) it was 417.43 ± 15.23. Also, the results for the Fluorescence intensity in the test on 293T cells (10 uM), in the test on 293T cells (50 uM) and with 293T cells (100 uM) were 217.04 ± 7.44, 87.50 ± 2.33 and 92.89 ± 5.33, respectively.

Consider Ascorbic acid-undecanedioic acid, for which the “Inhibition rate (%)” value was determined as 36.88 ± 5.99% in test [1] (2 nM); 70.10 ± 2.01% in test [1] (5 nM); 71.74 ± 5.03% in test [1] (10 nM); 67.01 ± 5.59% in test [1] (50 nM); 74.96 ± 2.33% in test [1] (100 nM); 32.33 ± 2.37% in test [1] (1 μM). Moreover, the “Inhibition rate (%)” value in test [1] (10 μM) stood at 44.08 ± 1.28%; in test [1] (50 μM) it was 83.56 ± 4.03%; in test [1] (100 μM) it was 73.01 ± 4.05%.

As for Glucose-hexadecanoic acid, the “Inhibition rate (%)” value is 50.54 ± 1.56% with HIV pseudovirus (18A-41) (2 nM); 57.26 ± 6.09% with HIV pseudovirus (18A-41) (5 nM); 86.44 ± 5.03% in the test with HIV pseudovirus (18A-41) (10 nM); 85.46 ± 3.99% with HIV pseudovirus (18A-41) (50 nM); 89.99 ± 5.07% in the test with HIV pseudovirus (18A-41) (100 nM); -94.23 ± 9.06% in the test with HIV pseudovirus (18A-41) (1 μM). In addition, the “Inhibition rate (%)” value was -44.88 ± 1.03% in the test on HIV pseudovirus (18A-41) (10 μM), 87.59 ± 5.03% in the test on HIV pseudovirus (18A-41) (50 μM) and 98.87 ± 6.03% in the test on HIV pseudovirus (18A-41) (setting [2]).
